Results published in patent US7763585B2, “Methods for inhibiting tumor cell proliferation” (priority 2003, dated 2010).
Read-outs that look alike come from different tables or passages of the source.

Tests used:
[1] = system: Stat3-dependent luciferase reporter (pLucTKS3); experiment: Stat3-dependent firefly luciferase reporter in NIH3T3/v-Src/pLucTKS3; format: cell-based, mouse; settings: NIH3T3/v-Src/pLucTKS3, FIG. 4
Protocol: FIGS. 4A-B show inhibition of Stat3-mediated gene expression in intact cells by platinum complexes. v-Src-transformed mouse fibroblasts that stably express Stat3-dependent (NIH3T3/v-Src/pLucTKS3) and Stat3-independent (NIH3T3/v-Src/pRLSRE) luciferase reporters were treated with platinum complexes for the indicated times. Cytosolic extracts were then prepared from cells for Stat3-dependent firefly luciferase activity (FIG. 4A) and Stat3-independent renilla luciferase measurements (FIG. 4B). Values are the means and S.D. of five independent assays. […]
Cytosolic lysates preparation from fibroblasts for luciferase assays or from baculovirus-infected Sf-9 insect cells have been previously described (Turkson et al., 1998; Turkson et al., 2001; Turkson et al., 1999; Zhang et al., 2000). Luciferase assays were performed as outlined in the supplier's (Promega) manual and measured with a luminometer. […]

Stat1:Stat1 = target: T1, Stat1:Stat1 (Mus musculus, UniProt P42225); experiment: EMSA, disruption of Stat1:Stat1 DNA-binding activity in vitro (hSIE probe); format: biochemical; settings: for Level of DNA-binding activity of Stat1 (EMSA): EGF-stimulated fibroblast nuclear extracts, 30 min preincubation, FIG. 1A
T1 construct: endogenous in cells; host or cells: EGF-stimulated fibroblasts (nuclear extract)
T1 sequence (P42225 2-749 limits assumed): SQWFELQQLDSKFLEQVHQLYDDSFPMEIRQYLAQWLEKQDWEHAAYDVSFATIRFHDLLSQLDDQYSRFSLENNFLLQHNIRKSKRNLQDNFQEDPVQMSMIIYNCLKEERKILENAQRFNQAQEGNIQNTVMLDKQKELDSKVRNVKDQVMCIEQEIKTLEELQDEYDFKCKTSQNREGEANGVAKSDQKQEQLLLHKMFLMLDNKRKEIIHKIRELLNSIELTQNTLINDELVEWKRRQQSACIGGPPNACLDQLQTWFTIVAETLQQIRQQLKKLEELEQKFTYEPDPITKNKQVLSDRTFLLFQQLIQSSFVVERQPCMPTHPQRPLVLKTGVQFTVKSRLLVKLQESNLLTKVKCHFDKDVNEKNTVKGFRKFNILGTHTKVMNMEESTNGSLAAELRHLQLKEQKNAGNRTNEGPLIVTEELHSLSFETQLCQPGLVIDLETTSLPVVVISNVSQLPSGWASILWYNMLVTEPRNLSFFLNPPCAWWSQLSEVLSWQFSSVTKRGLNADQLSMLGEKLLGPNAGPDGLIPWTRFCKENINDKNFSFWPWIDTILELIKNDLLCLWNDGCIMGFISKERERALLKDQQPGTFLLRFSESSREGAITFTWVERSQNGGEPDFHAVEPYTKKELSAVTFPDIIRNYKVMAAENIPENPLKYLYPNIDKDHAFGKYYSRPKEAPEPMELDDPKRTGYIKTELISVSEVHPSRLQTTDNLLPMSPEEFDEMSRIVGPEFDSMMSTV
Protocol: (§1) FIGS. 1A-D are photographs showing EMSA analyses of DNA-binding activities and effects of platinum complexes. Nuclear extracts containing activated Stat1, Stat3 and Stat5 are treated with the indicated concentrations of platinum complex ISSCPA-1, ISSCPA-3, ISSCPA-7, or PtCl4 for 30 min at room temperature prior to incubation with radiolabeled oligonucleotide probes. […] Positions of complexes of DNA with STAT, E2F1 or NFκB (p65, p50) in gel are labeled. Control lanes represent nuclear extracts that are not pre-incubated with platinum complexes.
(§2) Nuclear extracts were prepared from cell lines and used for EMSA as previously described (Turkson et al., 1998; Yu et al., 1995; Garcia et al., 1997). In some cases, cells were pre-treated with platinum complexes for the indicated times prior to harvesting. Where cells were stimulated with EGF (6 ng/ml), duration of treatment was 15 min. Nuclear extracts were pre-incubated with compounds for 30 min at room temperature prior to incubation with radiolabeled probe. The ^32P-radiolabeled oligonucleotide probes used are hSIE (high affinity sis-inducible element, m67 variant, 5′-[…]-3′) (SEQ ID NO:1) that binds both Stat1 and Stat3 (Garcia et al., 1997; Wagner et al., 1990), MGFe (mammary gland factor element from the bovine β-casein gene promoter, 5′-AGATTTCTAGGAATTCAA-3′) (SEQ ID NO:2) that binds Stat1 and Stat5 (Gouilleux et al., 1995; Seidel et al., 1995), the NF-κB binding oligo (5′-[…]-3′) (SEQ ID NO:3), and the oligonucleotide sequence from the DHFR promoter that binds E2F1.
(§3) Platinum compounds were evaluated for inhibitory activity against STAT DNA-binding in vitro.

Stat1:Stat3 = target: T2, Stat1:Stat3 (Mus musculus, UniProt P42225+P42227); experiment: EMSA, disruption of Stat1:Stat3 DNA-binding activity in vitro (hSIE probe); format: biochemical
T2 construct: endogenous in cells; host or cells: EGF-stimulated fibroblasts (nuclear extract)
T2 sequence (P42227 2-770 limits assumed, one chain of several): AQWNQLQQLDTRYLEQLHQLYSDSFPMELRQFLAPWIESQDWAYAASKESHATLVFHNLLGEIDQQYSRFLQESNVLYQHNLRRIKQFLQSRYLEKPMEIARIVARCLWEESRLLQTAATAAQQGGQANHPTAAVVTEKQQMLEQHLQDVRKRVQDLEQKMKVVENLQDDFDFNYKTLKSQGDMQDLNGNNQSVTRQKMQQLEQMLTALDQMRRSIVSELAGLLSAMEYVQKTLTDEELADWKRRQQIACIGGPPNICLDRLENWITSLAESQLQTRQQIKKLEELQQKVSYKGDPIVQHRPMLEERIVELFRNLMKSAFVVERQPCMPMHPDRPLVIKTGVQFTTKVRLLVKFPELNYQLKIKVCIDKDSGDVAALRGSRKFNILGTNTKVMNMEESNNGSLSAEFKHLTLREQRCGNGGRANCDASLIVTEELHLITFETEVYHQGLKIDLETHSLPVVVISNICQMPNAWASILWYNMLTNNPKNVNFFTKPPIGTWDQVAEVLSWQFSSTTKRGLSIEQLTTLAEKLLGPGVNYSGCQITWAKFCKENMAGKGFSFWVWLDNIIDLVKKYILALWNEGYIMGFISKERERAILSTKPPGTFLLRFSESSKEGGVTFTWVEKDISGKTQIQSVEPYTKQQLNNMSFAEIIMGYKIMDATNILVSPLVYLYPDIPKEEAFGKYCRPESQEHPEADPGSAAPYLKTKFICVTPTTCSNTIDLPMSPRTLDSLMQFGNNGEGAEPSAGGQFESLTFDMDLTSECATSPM
Protocol: as §1, §2, §3

[2] = system: Src-transformed NIH3T3 fibroblasts; experiment: TUNEL staining for apoptosis, Src-transformed NIH3T3 fibroblasts; format: cell-based, mouse; settings: 48 h treatment, FIG. 7
Protocol: FIG. 7 is a photograph showing induction of apoptosis by platinum complexes. Normal NIH3T3 fibroblasts and their v-Src-transformed counterparts were treated with platinum complexes for 48 h and analyzed for evidence of DNA damage using TUNEL staining kit.
Proliferating cells were counted by phase-contrast microscopy for viable cells (using trypan blue exclusion. TUNEL staining was carried according to supplier's instructions to detect apoptotic cells. Cells (NIH3T3 or NIH3T3/v-Src) were first treated with or without compounds 24-48 h prior to staining.
Studies have established a critical role for constitutive Stat3 signaling in the survival of transformed and tumor cells (Catlett-Falcone et al., 1999a; Grandis et al., 2000a; Epling-Burnette et al., 2001; Bowman et al., 2000b; Grandis et al., 2000b; Horiguchi et al., 2002). Effects of the subject platinum compounds on viability and survival of malignant cells were evaluated. To determine whether inhibition of persistently-active Stat3 by the subject compounds results in apoptosis, Src-transformed and normal mouse fibroblasts were treated with the subject platinum compounds and subjected to TUNEL staining for evidence of apoptosis.

| Structure (SMILES) | Stat3-dependent induction of luciferase reporter [1] | Level of DNA-binding activity of Stat1 (EMSA) (Stat1:Stat1; hSIE probe) | IC50 (Stat1:Stat1; nuclear extracts pre-incubated 30 min at room temperature, hSIE probe, read-out: IC50 for disruption of STAT DNA-binding activity in vitro, Stat1:Stat1) [µM] | IC50 (Stat1:Stat3; nuclear extracts pre-incubated 30 min at room temperature, hSIE probe, read-out: IC50 for disruption of STAT DNA-binding activity in vitro, Stat1:Stat3) [µM] | Apoptosis (TUNEL staining) in Src-transformed NIH3T3 fibroblasts [2] | IC50 (Stat1:Stat1) [µM] | IC50 (Stat1:Stat3) [µM] |
| --- | --- | --- | --- | --- | --- | --- | --- |
| [NH2][Pt]([NH2])([Cl])([Cl])([Cl])[N+](=O)[O-] [ISS CPA-7] | significantly suppress | dose-dependent reduction | 4 | 3.5 | strong apoptosis | – | – |
| O=[N+]([O-])[Pt]1([Cl])([Cl])([Cl])[NH]CC[NH]1 [ISS CPA-1] | significantly suppress | dose-dependent reduction | – | – | strong apoptosis | 20 | 9.3 |
